Test results reported in PMC8699473, “An Easily Expandable Multi-Drug LC-MS Assay for the Simultaneous Quantification of 57 Oral Antitumor Drugs in Human Plasma” (Cancers, 2021).

Experiment: Long-term stability in spiked pooled human plasma

Structure (SMILES): C[C@]12CC[C@H](O)CC1=CC[C@@H]1[C@@H]2CC[C@]2(C)C(c3cccnc3)=CC[C@@H]12 [Abiraterone]
- Long-term stability, 1 month, -20°C Accuracy [%] (validation standard 2xLLOV): 96.2%
- Long-term stability, 1 month, -80°C Accuracy [%] (validation standard 2xLLOV): 93.5%
- Long-term stability, 2 month, -20°C Accuracy [%] (validation standard 2xLLOV): 101.0%
- Long-term stability, 2 month, -80°C Accuracy [%] (validation standard 2xLLOV): 100.1%
- Long-term stability, 3 month, -20°C Accuracy [%] (validation standard 2xLLOV): 97.2%
- Long-term stability, 3 month, -80°C Accuracy [%] (validation standard 2xLLOV): 97.9%
- Long-term stability, 6 weeks, 4°C, without daylight Accuracy [%] (validation standard 2xLLOV): 101.6%
- Long-term stability, 1 month, -20°C Accuracy [%] (validation standard LLOV): 96.5%
- Long-term stability, 1 month, -80°C Accuracy [%] (validation standard LLOV): 93.2%
- Long-term stability, 2 month, -20°C Accuracy [%] (validation standard LLOV): 97.0%
- Long-term stability, 2 month, -80°C Accuracy [%] (validation standard LLOV): 105.8%
- Long-term stability, 3 month, -20°C Accuracy [%] (validation standard LLOV): 101.7%
- Long-term stability, 3 month, -80°C Accuracy [%] (validation standard LLOV): 106.0%
- Long-term stability, 6 weeks, 4°C, without daylight Accuracy [%] (validation standard LLOV): 110.7%
- Long-term stability, 1 month, -20°C Accuracy [%] (validation standard MOV): 95.8%
- Long-term stability, 1 month, -80°C Accuracy [%] (validation standard MOV): 93.5%
- Long-term stability, 2 month, -20°C Accuracy [%] (validation standard MOV): 101.2%
- Long-term stability, 2 month, -80°C Accuracy [%] (validation standard MOV): 102.9%
- Long-term stability, 3 month, -20°C Accuracy [%] (validation standard MOV): 101.8%
- Long-term stability, 3 month, -80°C Accuracy [%] (validation standard MOV): 100.6%
- Long-term stability, 6 weeks, 4°C, without daylight Accuracy [%] (validation standard MOV): 106.4%
- Long-term stability, 1 month, -20°C Accuracy [%] (validation standard ULOV): 98.3%
- Long-term stability, 1 month, -80°C Accuracy [%] (validation standard ULOV): 93.2%
- Long-term stability, 2 month, -20°C Accuracy [%] (validation standard ULOV): 102.5%
- Long-term stability, 2 month, -80°C Accuracy [%] (validation standard ULOV): 103.2%
- Long-term stability, 3 month, -20°C Accuracy [%] (validation standard ULOV): 99.7%
- Long-term stability, 3 month, -80°C Accuracy [%] (validation standard ULOV): 100.6%
- Long-term stability, 6 weeks, 4°C, without daylight Accuracy [%] (validation standard ULOV): 102.8%

Structure (SMILES): O=C1CCC(N2C(=O)c3ccccc3C2=O)C(=O)N1 (stereo not drawn) [Thalidomide]
- Long-term stability, 1 month, -20°C Accuracy [%] (validation standard 2xLLOV): 75.6%
- Long-term stability, 1 month, -80°C Accuracy [%] (validation standard 2xLLOV): 74.9%
- Long-term stability, 2 month, -20°C Accuracy [%] (validation standard 2xLLOV): 58.1%
- Long-term stability, 2 month, -80°C Accuracy [%] (validation standard 2xLLOV): 79.7%
- Long-term stability, 3 month, -20°C Accuracy [%] (validation standard 2xLLOV): 50.7%
- Long-term stability, 3 month, -80°C Accuracy [%] (validation standard 2xLLOV): 79.8%
- Long-term stability, 1 month, -20°C Accuracy [%] (validation standard LLOV): 71.4%
- Long-term stability, 1 month, -80°C Accuracy [%] (validation standard LLOV): 76.7%
- Long-term stability, 2 month, -20°C Accuracy [%] (validation standard LLOV): 57.5%
- Long-term stability, 2 month, -80°C Accuracy [%] (validation standard LLOV): 72.7%
- Long-term stability, 3 month, -20°C Accuracy [%] (validation standard LLOV): 43.9%
- Long-term stability, 3 month, -80°C Accuracy [%] (validation standard LLOV): 76.7%
- Long-term stability, 1 month, -20°C Accuracy [%] (validation standard MOV): 66.7%
- Long-term stability, 1 month, -80°C Accuracy [%] (validation standard MOV): 73.1%
- Long-term stability, 2 month, -20°C Accuracy [%] (validation standard MOV): 57.0%
- Long-term stability, 2 month, -80°C Accuracy [%] (validation standard MOV): 77.9%
- Long-term stability, 3 month, -20°C Accuracy [%] (validation standard MOV): 50.8%
- Long-term stability, 3 month, -80°C Accuracy [%] (validation standard MOV): 75.0%
- Long-term stability, 1 month, -20°C Accuracy [%] (validation standard ULOV): 68.6%
- Long-term stability, 1 month, -80°C Accuracy [%] (validation standard ULOV): 66.3%
- Long-term stability, 2 month, -20°C Accuracy [%] (validation standard ULOV): 42.5%
- Long-term stability, 2 month, -80°C Accuracy [%] (validation standard ULOV): 79.5%
- Long-term stability, 3 month, -20°C Accuracy [%] (validation standard ULOV): 33.5%
- Long-term stability, 3 month, -80°C Accuracy [%] (validation standard ULOV): 78.0%

Structure (SMILES): CN(C)C(=O)c1cc2cnc(Nc3ccc(N4CCNCC4)cn3)nc2n1C1CCCC1 [Ribociclib]
- Long-term stability, 1 month, -80°C Accuracy [%] (validation standard 2xLLOV): 98.5%
- Long-term stability, 2 month, -20°C Accuracy [%] (validation standard 2xLLOV): 109.0%
- Long-term stability, 2 month, -80°C Accuracy [%] (validation standard 2xLLOV): 112.4%
- Long-term stability, 3 month, -80°C Accuracy [%] (validation standard 2xLLOV): 106.4%
- Long-term stability, 6 weeks, 4°C, without daylight Accuracy [%] (validation standard 2xLLOV): 96.4%
- Long-term stability, 1 month, -20°C Accuracy [%] (validation standard LLOV): 88.0%
- Long-term stability, 1 month, -80°C Accuracy [%] (validation standard LLOV): 83.5%
- Long-term stability, 2 month, -20°C Accuracy [%] (validation standard LLOV): 92.7%
- Long-term stability, 2 month, -80°C Accuracy [%] (validation standard LLOV): 94.7%
- Long-term stability, 3 month, -80°C Accuracy [%] (validation standard LLOV): 90.7%
- Long-term stability, 6 weeks, 4°C, without daylight Accuracy [%] (validation standard LLOV): 76.6%
- Long-term stability, 1 month, -80°C Accuracy [%] (validation standard MOV): 101.3%
- Long-term stability, 2 month, -20°C Accuracy [%] (validation standard MOV): 108.6%
- Long-term stability, 2 month, -80°C Accuracy [%] (validation standard MOV): 108.1%
- Long-term stability, 3 month, -80°C Accuracy [%] (validation standard MOV): 104.3%
- Long-term stability, 6 weeks, 4°C, without daylight Accuracy [%] (validation standard MOV): 107.4%
- Long-term stability, 1 month, -20°C Accuracy [%] (validation standard ULOV): 91.9%
- Long-term stability, 1 month, -80°C Accuracy [%] (validation standard ULOV): 90.7%
- Long-term stability, 2 month, -20°C Accuracy [%] (validation standard ULOV): 98.7%
- Long-term stability, 2 month, -80°C Accuracy [%] (validation standard ULOV): 98.8%
- Long-term stability, 3 month, -80°C Accuracy [%] (validation standard ULOV): 92.7%
- Long-term stability, 6 weeks, 4°C, without daylight Accuracy [%] (validation standard ULOV): 96.3%

Structure (SMILES): Cc1nc(Nc2ncc(C(=O)Nc3c(C)cccc3Cl)s2)cc(N2CCN(CCO)CC2)n1 [Dasatinib]
- Long-term stability, 1 month, -20°C Accuracy [%] (validation standard 2xLLOV): 99.2%
- Long-term stability, 1 month, -80°C Accuracy [%] (validation standard 2xLLOV): 92.5%
- Long-term stability, 2 month, -20°C Accuracy [%] (validation standard 2xLLOV): 98.2%
- Long-term stability, 2 month, -80°C Accuracy [%] (validation standard 2xLLOV): 96.3%
- Long-term stability, 3 month, -20°C Accuracy [%] (validation standard 2xLLOV): 102.0%
- Long-term stability, 3 month, -80°C Accuracy [%] (validation standard 2xLLOV): 99.1%
- Long-term stability, 6 weeks, 4°C, without daylight Accuracy [%] (validation standard 2xLLOV): 72.6%
- Long-term stability, 1 month, -20°C Accuracy [%] (validation standard LLOV): 108.6%
- Long-term stability, 1 month, -80°C Accuracy [%] (validation standard LLOV): 89.0%
- Long-term stability, 2 month, -20°C Accuracy [%] (validation standard LLOV): 82.2%
- Long-term stability, 2 month, -80°C Accuracy [%] (validation standard LLOV): 84.9%
- Long-term stability, 3 month, -20°C Accuracy [%] (validation standard LLOV): 81.3%
- Long-term stability, 3 month, -80°C Accuracy [%] (validation standard LLOV): 85.5%
- Long-term stability, 6 weeks, 4°C, without daylight Accuracy [%] (validation standard LLOV): 79.4%
- Long-term stability, 1 month, -20°C Accuracy [%] (validation standard MOV): 97.7%
- Long-term stability, 1 month, -80°C Accuracy [%] (validation standard MOV): 91.3%
- Long-term stability, 2 month, -20°C Accuracy [%] (validation standard MOV): 92.8%
- Long-term stability, 2 month, -80°C Accuracy [%] (validation standard MOV): 92.3%
- Long-term stability, 3 month, -20°C Accuracy [%] (validation standard MOV): 102.9%
- Long-term stability, 3 month, -80°C Accuracy [%] (validation standard MOV): 101.1%
- Long-term stability, 6 weeks, 4°C, without daylight Accuracy [%] (validation standard MOV): 102.3%
- Long-term stability, 1 month, -20°C Accuracy [%] (validation standard ULOV): 97.7%
- Long-term stability, 1 month, -80°C Accuracy [%] (validation standard ULOV): 93.4%
- Long-term stability, 2 month, -20°C Accuracy [%] (validation standard ULOV): 95.6%
- Long-term stability, 2 month, -80°C Accuracy [%] (validation standard ULOV): 100.4%
- Long-term stability, 3 month, -20°C Accuracy [%] (validation standard ULOV): 104.5%
- Long-term stability, 3 month, -80°C Accuracy [%] (validation standard ULOV): 105.8%
- Long-term stability, 6 weeks, 4°C, without daylight Accuracy [%] (validation standard ULOV): 97.9%
